In patent US20260069594A1, “USE OF AN AGENT CAPABLE OF INHIBITING THE ACTIVATION OF MAIT CELLS FOR THE TREATMENT OF RHEUMATOID ARTHRITIS” (INSTITUT NATIONAL DE LA SANTÉ ET DE LA RECHERCHE MÉDICALE, priority 2022, published 2026):

Experiments:
[1] = system: MAIT cells; test: mBSA-induced arthritis in wild type mice treated with Ac6FP or PBS; assay type: in vivo; details: wild type male mice, intraperitoneal twice a week
From the text: Arthritis was induced by intra-articular injection of methylated bovine serum albumin (mBSA) in MR1^−/− (depleted in MAIT cells) and wild type C57BL/6 mice, previously immunized with mBSA. We included 9 mice in each group, only females, which were 6 to 8 weeks old. Mice were daily evaluated for signs of joint inflammation, assessed by measuring tarsal thickness and scored on a scale of 0-4, where 0=no change, 1=local swelling and redness of digits, 2=mild swelling and redness, 3=severe swelling and redness, 4=necrosis. Mice were sacrificed on day 8, and the paws were separated, fixed with 4% paraformaldehyde and decalcified for histopathological assessment. All mice developed arthritis, with a peak of inflammation at day 1.
Arthritis was induced by intra-articular injection of methylated bovine serum albumin (mBSA) in wild type mice, treated with Acetyl-6-formylpterin (Ac6FP), a non-activating ligand of MAIT cells or PBS, previously immunized with mBSA. Ac6FP or PBS were injected twice a week in intraperitoneal. We included 6 wild type mice in each group, only males, which were 8 weeks old. Mice were daily evaluated as described previously. All mice developed arthritis, with a peak of inflammation at day 1.
Values are the mean+/−SEM of 6 mice in each group. Test: Student T test. Ac6FP: Acetyl-6-formylpterin. AUC: Area Under Curve. […]

[2] = system: rheumatoid arthritis; details: cited from earlier work

| SMILES | clinical score (scale 0-4) compared to PBS group ([1]; daily evaluation) | area under curve (AUC) of clinical score, median ([1]; n=6, vs. 5.5 in PBS group, p=0.07) | patients reaching remission states ([2]; RA patients at 6-12 months) | patients reaching low disease activity states ([2]; early RA patients, with or without corticosteroids) |
| --- | --- | --- | --- | --- |
| CC(=O)Nc1nc2ncc(C=O)nc2c(=O)[nH]1 [Ac6FP, Acetyl-6-formylpterin] | lower clinical score | 3 |  |  |
| CN(Cc1cnc2nc(N)nc(N)c2n1)c1ccc(C(=O)N[C@@H](CCC(=O)O)C(=O)O)cc1 [MTX, methotrexate] |  |  | 10-20% | 25-50% |
